The text below walks through data of patent US20080318847A1, “Use of Antagonist of Oxytocin and/or Vasopressin in Assisted Reproduction” (Ferring International Center SA, priority 2005, published 2008).

Entries after “also recorded” stand apart in the source; their conditions may differ. Bridge positions count the residues as written; N and C are the ends. Square brackets hold non-standard residues; d marks the D form. Peptide text beside a SMILES is read from it. Orn = NCCC[C@H](N)C(=O)O; Mpa = O=C(O)CCS

One series relates to human sperm. Nature of the series: Human Sperm Motility Bioassay (embryotoxicity). The class given is cell-based. The method, then:
In order to verify the embryotoxicity of atosiban a study on influence of atosiban on parameters of human sperm motility was performed (Human Sperm Motility Bioassay). The technique used in the study is a standard in the quality control and evaluation of embryotoxicity in IVF laboratories.
The study was performed on samples of fresh human sperm taken from 15 healthy donors with perfect seminologic parameters. After selecting the alive and motile population (swim-up ascending migration method), sperm samples were transferred to the sterile Eppendorf tubes containing Human Sperm Preparation Medium alone or with atosiban in concentrations of 300 nM, 1000 nM, 3000 nM, last concentrations being 10-fold to maximal concentrations achieved in humans in the course of treatment of preterm labor. Sperm motility assessment was performed with computer assisted sperm analyzer Hobson Sperm Tracker in the 1st, 8th and 24th hour of exposition to atosiban.
Following parameters were analyzed:
a) percentage of actively motile sperm cells (Active %); b) percentage of motile sperm cells (Motility %); c) percentage of hyperactively motile sperm cells (Hyper %), d) VSL—straight line velocity, e) VCL—total velocity, f) ALH—amplitude of lateral head displacements. Results are presented at FIG. 2 and FIG. 3. In the statistic analysis, analysis of variance (ANOVA) was applied.

Series [1] relates to uterine contractile activity. Description: Transvaginal sonography of uterine contractile activity before and during atosiban infusion at embryo transfer (IVF-ET patient). The class given is in vivo, human. The method, then: FIG. 1 presents a graph on uterine contractile activity assessed by transvaginal sonography in patient which case is described in example 1. Uterine contractions on graph B and C are marked with light color for better visualization. In the method of digital image analysis, due to the requirement of a high picture quality, a period of 4 minutes out of total 5 minutes recorded was selected for analysis. • A) Schematic presentation of a principle of non invasive assessment of uterine contractility (done similarly to Fanchin et al. [Hum. Reprod. 1998; 13(7):1968-74]) Description: U—uterus, En—endometrium (the inner layer of the uterus)—during the uterine contractions, changes in texture and contour of endometrium are observed, My—myometrium (the middle layer of uterus, built of smooth muscle tissue), T—testing segment, where movements of contour of endometrium representing the uterine contractile activity are assessed • B) Graph presenting uterine contractile activity before the application of oxytocin antagonist atosiban. Contractile hyperactivity is seen. Legend: ↑—uterine contraction, 1 min—segment representing 1 min of digital recording, T—testing segment, where movements of contour of endometrium reflecting the uterine contractile activity are assessed; C) Graph presenting uterine contractile activity in the time of maximal effect of oxytocin antagonist atosiban. […] Legend: ↑—uterine contraction, 1 min—segment representing 1 min of digital recording, T—testing segment, where movements of contour of endometrium reflecting the uterine contractile activity are assessed
In the 8th cycle of the treatment, a decision on application of a medicament containing atosiban (antagonist of oxytocin and vasopressin) was drawn, aiming to improve the uterine receptivity. The medicament was given in intravenous infusion, which started 60 minutes before the transfer and was continued throughout 2 hours after the transfer. […]

For series [2] the following is noted: clinical use in preterm labor; cited from earlier work.
Series [3] concerns uterine receptivity at the embryo transfer. Description: Clinical application of atosiban at embryo transfer (IVF-ET): outcome and tolerability. The series is classed as in vivo, human. From the text:
Clinical application of medicament containing atosiban—an antagonist of oxytocin and vasopressin for increasing the uterine receptivity at the embryo transfer in the course of assisted reproduction procedure of IVF-ET (in vitro fertilization-embryo transfer).
In the 8th cycle of the treatment, a decision on application of a medicament containing atosiban (antagonist of oxytocin and vasopressin) was drawn, aiming to improve the uterine receptivity. The medicament was given in intravenous infusion, which started 60 minutes before the transfer and was continued throughout 2 hours after the transfer. 10 minutes before the start of administration (70 minutes before the transfer) transvaginal sonography with 5-minute digital registration of uterine contractions was performed. […] Immediately after, a continuous infusion of 18 mg/hour of atosiban was connected using the infusion pump and was continued throughout the next 60 minutes. 45 minutes after the initiation of the infusion, transvaginal sonography with digital image registration was repeated. Between 55th and 60th minute of infusion, a sonography-guided transfer of 2 embryos was performed. After the transfer, the dosage of atosiban was changed to 6 mg/hour. Infusion was finished 2 hours after the transfer, total dose administered was 37.5 mg.
The mode of application of atosiban described above provided the maximal effect at the time of embryo transfer (it was proven that stable concentrations of atosiban are reached about an hour after the initiation of the infusion). Patient stayed in horizontal position until an hour after termination of the infusion and limited their activities on that day. At the control visit done 2 weeks after the embryo transfer, a pregnancy test was done with positive result.

The conditions of series [4]: after the initiation of the intravenous infusion; cited from earlier work.
Series [5] deals with vasopressin V1a receptors (Homo sapiens, UniProt P37288). To be noted: V1a versus oxytocin receptors; cited from earlier work.
Chain of vasopressin V1a receptors (P37288 whole entry): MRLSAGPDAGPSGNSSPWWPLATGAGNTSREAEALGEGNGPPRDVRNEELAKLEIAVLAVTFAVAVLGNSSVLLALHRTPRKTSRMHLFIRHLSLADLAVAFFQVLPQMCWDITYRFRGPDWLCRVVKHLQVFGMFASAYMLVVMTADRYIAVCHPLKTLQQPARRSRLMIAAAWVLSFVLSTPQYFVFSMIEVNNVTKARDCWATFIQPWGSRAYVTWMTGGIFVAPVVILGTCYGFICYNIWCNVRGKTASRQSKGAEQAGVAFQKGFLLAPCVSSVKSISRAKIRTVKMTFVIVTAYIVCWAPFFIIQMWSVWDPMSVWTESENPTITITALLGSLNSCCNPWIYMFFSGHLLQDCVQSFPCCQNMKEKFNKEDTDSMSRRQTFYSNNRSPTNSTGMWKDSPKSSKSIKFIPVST
The subject of series [6] is uterine contractile activity. To be noted: non pregnant humans, vasopressin administrations VAS-1 to VAS-3; Bossmar et al.; cited from earlier work.
Series [7] deals with human pregnant myometrium. To be noted: cited from earlier work.
For series [8] the following is noted: in vivo; cited from earlier work.
[9] abbreviates: atosiban 300 nM, 1000 nM, 3000 nM, 1st, 8th and 24th hour, ANOVA.

On to `CCOc1ccc(C[C@H]2NC(=O)CCSSC[C@@H](C(=O)N3CCC[C@H]3C(=O)N[C@@H](CCCN)C(=O)NCC(N)=O)NC(=O)[C@H](CC(N)=O)NC(=O)[C@H]([C@@H](C)O)NC(=O)[C@H]([C@@H](C)CC)NC2=O)cc1` [atosiban] ([Mpa][dY](Et)ITNCP[Orn]G-NH2; disulfide 1-6), for which, in the series with human sperm (setting [9]), the “percentages of actively motile, motile and hyperactively motile sperm (Active %, Motility %, Hyper %) versus control” value is on record as “No significant differences”; the “sperm movement parameters (VCL, VSL, ALH) versus control” value is given as “no significant differences”. Also, in the series on human sperm (atosiban 300 nM, 1000 nM, 3000 nM, in vitro, ANOVA), the “parameters of human sperm motility (Active %, Motility %, Hyper %, VSL, VCL, ALH) versus control samples” value was “does not inhibit; also recorded: No significant differences”. Besides, the “embryotoxicity (concluded from sperm motility bioassay)” value in the series with human sperm (atosiban up to 3000 nM) is reported as “lacks embryotoxic potential; also recorded: lack of embryotoxicity”. The “uterine contractions, method II (digital analysis of displacements of endometrial contour)” value in [1] (after the administration of atosiban i.v. (stable blood levels), 11 contractions/4 min before administration) came out at 7 contractions/4 min. The “uterine contractions, method I (inspection and manual registration of contractions on an accelerated film sequence)” value in series [1] (after the administration of atosiban i.v. (stable blood levels, 45 minutes after initiation of infusion), 15 contractions/5 min before administration) amounted to 8 contractions/5 min. Besides, the “uterine contractile activity (change versus before atosiban)” value in [1] (time of maximal effect / stable blood levels of atosiban) is given as “notably decreased; also recorded: significant reduction”. Besides, the side effects result in series [2] is “minimal side effects”. The pregnancy test entry in series [3] (2 weeks after the embryo transfer, atosiban 6.75 mg bolus, 18 mg/hour then 6 mg/hour i.v.) was “positive”. The transvaginal sonography finding result in [3] (4 weeks after the transfer) is on record as “intrauterine, normal twin pregnancy”. Besides, in series [3] (bolus dose of 6.75 mg intravenously, 60 minutes before the transfer), the adverse reactions entry was “no adverse reactions”. Moreover, in series [4], the “time until stable concentrations are reached” value was “about an hour”.

In the case of `COc1ccc(S(=O)(=O)N2c3ccc(Cl)cc3[C@](O)(c3ccccc3Cl)[C@@H]2C(=O)N2CCC[C@H]2C(N)=O)cc1OC` [relcovaptan], the receptor affinity profile entry in series [5] was “greater affinity towards vasopressin V1a receptors as compared to oxytocin receptors”. In series [6], the “uterine contractility (area under curve of intrauterine pressure) relative to placebo” value is “decreasing the uterine contractility”.

In the case of barusiban, the “inhibition of contractile activity” value in [7] (in the range of oxytocin concentrations that occur in humans) is listed as “total inhibition”. In addition, the “potency as inhibitor of uterine contractions compared to atosiban” value in series [7] (in vitro) is recorded as “more potent”. Further, the “myometrium contractile activity after administration” value in [7] (oxytocin stimulated, in vitro, Pierzynski et al.) is “significantly reduced”. Further, the “estimated half time of a single dose” value in series [8] is 7 h.
